tested on: RSV A2; experiment: RSV inhibition (cytopathic effect inhibition) using Viral ToxGlo assay in HEp-2 cells; format: cell-based; settings: human respiratory syncytial virus, RSV A2, MOI 0.5, HEp-2 cells, 72 h p.i.
Protocol: Protocol for Screening Antiviral Compounds for RSV Inhibition and Cytotoxicity Using Viral ToxGlo Assay
HEp-2 cells were maintained in Eagle's minimum essential medium (EMEM) with Earle's BSS adjusted to contain 2 mM L-glutamine, 10% fetal bovine serum, 100 U/ml penicillin and 100 μg/ml streptomycin. For the purposes of the screening assay they were grown to 90% confluency, trypsinized and recovered. The trypsin was neutralised with cell culture media and cells were centrifuged at 150×g for 5 minutes before discarding the supernatant and resuspending cell pellet in assay media (EMEM with Earle's BSS adjusted to contain 2 mM L-glutamine, 2% fetal bovine serum and 100 U/ml penicillin and 100 μg/ml streptomycin). The cells were seeded into white clear-bottomed cell culture plates at a density of 1.5×10^4 cells/well in 50 μl and 4×10^3 cells/well in 25 μl for 96 well plates and 384 well plates respectively. For the media/background control column assay media only was added. Cell plates were placed in a humid chamber and incubated overnight at 37° C./5% CO2. After overnight incubation cells were checked for confluency and healthy appearance.
Test articles were made up at 10× test concentration in a maximum DMSO concentration of 10% (final assay concentration maximal 1% DMSO) and added to the cell plates in volumes of 10 μl for 96 well plates and 5 μl for 384 well plates. For cell control and virus control wells the test article solvent only was added. Virus or assay media for cytotoxicity test wells and media/cell control wells was added immediately after test articles at an MOI of 0.5, 40 or 20 μl for 96 and 384 well plates respectively. Virus suspension was prepared by thawing RSV A2 frozen stocks and diluting to the required concentration of plaque forming units in assay media on ice.
Cell plates were further incubated inside a humid chamber for 72 h p.i at 37° C./5% CO2. After the incubation period cells were observed under the microscope to check for characteristic cytopathic effect in virus control wells and healthy cells in the cell control wells. After plates were adjusted to room temperature 20/40 μl Viral ToxGlo (Promega) was added to each well of the 384/96 well cell plates. Plates were incubated at room temperature, protected from light on a plate rocker for 20 minutes before measuring the luminescence on a spectrophotometer (Biotek Synergy HTX).
RSV inhibition was calculated as percentage of cytopathic effect inhibition relative to the virus control and cytotoxicity as percentage of cell survival relative to cell control wells. This allowed EC50 values to be calculated for each test article where a virus inhibition or cytotoxic dose response was identified.

In order of falling EC50:
1. c1ccc(COc2ccc(Nc3ccccc3OCCCC3CCCCC3)c(C3CC3)c2)cc1 [Compound 154, 4-(benzyloxy)-N-[2-(3-cyclohexylpropoxy)phenyl]-2-cyclopropylaniline]  810 nM
2. Cc1cc(OCc2ncccn2)ccc1Nc1cccc(OCCCC2CCCCC2)c1 [Compound 152, N-[3-(3-cyclohexylpropoxy)phenyl]-2-methyl-4-[(pyrimidin-2-yl)methoxy]aniline]  802 nM
3. c1ccc(COc2ccc(Nc3cccc(-c4cnco4)c3)c(C3CC3)c2)nc1 [Compound 179, 2-cyclopropyl-N-[3-(1,3-oxazol-5-yl)phenyl]-4-[(pyridin-2-yl)methoxy]aniline]  721 nM
4. NC(=O)c1cccc(Nc2ccc(OCc3ccccn3)cc2C2CC2)c1 [Compound 84, 3-((2-cyclopropyl-4-(pyridin-2-ylmethoxy)phenyl)amino)benzamide]  637 nM
5. O=C(NCCC1CCCCC1)c1cccc(Nc2ccc(OCc3ccccn3)cc2C2CC2)n1 [Compound 86, N-(2-cyclohexylethyl)-6-((2-cyclopropyl-4-(pyridin-2-ylmethoxy)phenyl)amino)picolinamide]  567 nM
6. C[Si](C)(C)Oc1cccc(Nc2ccc(OCc3ccccn3)cc2C2CC2)c1 [Compound 141, 2-cyclopropyl-4-[(pyridin-2-yl)methoxy]-N-{3-[(trimethylsilyl)oxy]phenyl}aniline]  352 nM
7. Cc1cc(OCc2ccccc2)ccc1Nc1ccccc1C(=O)NCCC1CCCCC1 [Compound 139, 2-{[4-(benzyloxy)-2-methylphenyl]amino}-N-(2-cyclohexylethyl)benzamide]  329 nM
8. COC(=O)C(NCCC1CCCCC1)c1cccc(Nc2ccc(OCc3ccccc3)cc2C2CC2)c1 (stereo not shown) [Compound 138, methyl 2-(3-{[4-(benzyloxy)-2-cyclopropylphenyl]amino}phenyl)-2-[(2-cyclohexylethyl)amino]acetate]  312 nM
9. N#CC1(NC(=O)c2ccccc2Nc2ccc(OCc3ccccn3)cc2C2CC2)CC1 [Compound 136, N-(1-cyanocyclopropyl)-2-({2-cyclopropyl-4-[(pyridin-2-yl)methoxy]phenyl}amino)benzamide]  295 nM
10. O=C(O)C(NCCC1CCCCC1)c1cccc(Nc2ccc(OCc3ccccc3)cc2C2CC2)c1 (stereo not shown) [Compound 135, 2-(3-{[4-(benzyloxy)-2-cyclopropylphenyl]amino}phenyl)-2-[(2-cyclohexylethyl)amino]aceticacid]  292 nM
11. O=P(O)(O)Oc1cccc(Nc2ccc(OCc3ccccn3)cc2C2CC2)c1 [Compound 133, [3-({2-cyclopropyl-4-[(pyridin-2-yl)methoxy]phenyl}amino)phenoxy]phosphonic acid]  230 nM
12. c1ccc(COc2ccc(Nc3cccc(-c4nnc(CCC5CCCCC5)o4)c3)c(C3CC3)c2)nc1 [Compound 130, N-{3-[5-(2-cyclohexylethyl)-1,3,4-oxadiazol-2-yl]phenyl}-2-cyclopropyl-4-[(pyridin-2-yl)methoxy]aniline]  198 nM
13. CC(C)NC(=O)c1c(C#N)cccc1Nc1ccc(OCc2ccccc2)cc1C1CC1 [Compound 128, 2-{[4-(benzyloxy)-2-cyclopropylphenyl]amino}-6-cyano-N-(propan-2-yl)benzamide]  156 nM
14. O=C(CCC1CCCCC1)Nc1cc(Nc2ccc(OCc3ccc(F)cc3)cc2C(F)(F)F)ccc1F [Compound 125, 3-cyclohexyl-N-[2-fluoro-5-({4-[(4-fluorophenyl)methoxy]-2-(trifluoromethyl)phenyl}amino)phenyl]propanamide]  130 nM
15. O=C(NCCC(F)(F)F)c1ccccc1Nc1ccc(OCc2ccccn2)cc1C1CC1 [Compound 120, 2-({2-cyclopropyl-4-[(pyridin-2-yl)methoxy]phenyl}amino)-N-(3,3,3-trifluoropropyl)benzamide]  110 nM
16. O=C(NCCC1CCCCC1)c1cc(Nc2ccc(OCc3ccccn3)cc2C2CC2)ccn1 [Compound 117, N-(2-cyclohexylethyl)-4-({2-cyclopropyl-4-[(pyridin-2-yl)methoxy]phenyl}amino)pyridine-2-carboxamide]  98 nM
17. O=C(CCC1CCCCC1)Nc1cc(Nc2ccc(OCc3ccccc3)cc2C(F)(F)F)ccc1F [Compound 116, N-(5-{[4-(benzyloxy)-2-(trifluoromethyl)phenyl]amino}-2-fluorophenyl)-3-cyclohexylpropanamide]  93 nM
18. O=C(NCCC1CCCCC1)c1ccnc(Nc2ccc(OCc3ccccn3)cc2C2CC2)c1 [Compound 90, N-(2-cyclohexylethyl)-2-((2-cyclopropyl-4-(pyridin-2-ylmethoxy)phenyl)amino)isonicotinamide]  92 nM
19. O=C(NCCC1CCCCC1)c1ccccc1Nc1ccc(OCc2ccccc2)cc1C1CC1 [Compound 115, 2-{[4-(benzyloxy)-2-cyclopropylphenyl]amino}-N-(2-cyclohexylethyl)benzamide]  83 nM
20. O=C(NCC1CCCC1)c1ccccc1Nc1ccc(OCc2ccccn2)cc1C1CC1 [Compound 113, N-(cyclopentylmethyl)-2-({2-cyclopropyl-4-[(pyridin-2-yl)methoxy]phenyl}amino)benzamide]  69 nM
21. O=C(NCCC1CCCC1)c1cccc(Nc2ccc(OCc3ccccn3)cc2C2CC2)c1 [Compound 60, N-(2-cyclopentylethyl)-3-((2-cyclopropyl-4-(pyridin-2-ylmethoxy)phenyl)amino)benzamide]  67 nM
22. CN(c1cccc(C(=O)NCCC2CCCCC2)c1)c1ccc(OCc2ccccn2)cc1C1CC1 [Compound 111, N-(2-cyclohexylethyl)-3-({2-cyclopropyl-4-[(pyridin-2-yl)methoxy]phenyl}(methyl)amino)benzamide]  62 nM
23. CCCC(C)NC(=O)c1cccc(Nc2ccc(OCc3ccccn3)cc2CC)c1 (stereo not shown) [Compound 78, N-(1-methylbutyl)-3-((2-ethyl-4-(pyridin-2-ylmethoxy)phenyl)amino)benzamide]  58 nM
24. CS(=O)(=O)c1cc(OCc2ccccc2)ccc1Nc1cccc(NC(=O)CCC2CCCCC2)c1 [Compound 107, N-(3-{[4-(benzyloxy)-2-methanesulfonylphenyl]amino}phenyl)-3-cyclohexylpropanamide]  36 nM
25. O=S(=O)(NCCC1CCCCC1)c1cccc(Nc2ccc(OCc3ccccn3)cc2C2CC2)c1 [Compound 79, N-(2-(cyclohexyl)ethyl)-3-((2-cyclopropyl-4-(pyridin-2-ylmethoxy)phenyl)amino)benzenesulfonamide]  33 nM
26. Cc1c(Nc2ccc(OCc3ccccc3)cc2C2CC2)cccc1OCCCC1CCCCC1 [Compound 105, 4-(benzyloxy)-N-[3-(3-cyclohexylpropoxy)-2-methylphenyl]-2-cyclopropylaniline]  31 nM
27. CCc1cc(OCc2ccccn2)ccc1Nc1cccc(C(=O)NCCC2CCCCC2)c1 [Compound 75, N-(2-(cyclohexyl)ethyl)-3-((2-ethyl-4-(pyridin-2-ylmethoxy)phenyl)amino)benzamide]  25 nM
28. O=C(NCCCC1CCCCC1)c1ccccc1Nc1ccc(OCc2ccccc2)cc1C1CC1 [Compound 103, 2-{[4-(benzyloxy)-2-cyclopropylphenyl]amino}-N-(3-cyclohexylpropyl)benzamide]  24 nM
29. CC(C)(C)c1cc(OCc2ccccc2)ccc1Nc1ccccc1C(=O)NCCC1CCCCC1 [Compound 101, 2-{[4-(benzyloxy)-2-tert-butylphenyl]amino}-N-(2-cyclohexylethyl)benzamide]  21 nM
30. O=C(CCC1CCCCC1)Nc1cccc(Nc2ccc(OCc3ccccn3)cc2C2CC2)c1 [Compound 80, (3-(cyclohexyl)propanamide), N-[3-([2-cyclopropyl-4-(pyridin-2-ylmethoxy)phenyl]amino)phenyl]-]  21 nM
31. c1ccc(COc2ccc(Nc3cccc(NCCCC4CCCCC4)c3)c(C3CC3)c2)cc1 [Compound 95, N1-[4-(benzyloxy)-2-cyclopropylphenyl]-N3-(3-cyclohexylpropyl)benzene-1,3-diamine]  8 nM
32. CSc1cc(OCc2ccccc2)ccc1Nc1cccc(NC(=O)CCC2CCCCC2)c1 [Compound 94, N-(3-{[4-(benzyloxy)-2-(methylsulfanyl)phenyl]amino}phenyl)-3-cyclohexylpropanamide]  7 nM
33. O=C(CCC1CCCCC1)Nc1cccc(Nc2ccc(OCc3ccccc3)cc2C2=CCCC2)c1 [Compound 92, N-(3-{[4-(benzyloxy)-2-(cyclopent-1-en-1-yl)phenyl]amino}phenyl)-3-cyclohexylpropanamide]  4 nM
34. O=C(CCC1CCCCC1)Nc1cccc(Nc2ccc(OCc3ccccc3)cc2C2CCCC2)c1 [Compound 93, N-(3-{[4-(benzyloxy)-2-cyclopentylphenyl]amino}phenyl)-3-cyclohexylpropanamide]  4 nM

From patent US12421206B2, “Aryl-n-aryl derivatives for treating a RNA virus infection” (ABIVAX, priority 2018, dated 2025)
